Test results taken from article PMC12487594, “Contusive spinal cord injury causes Nav1.8 dysfunction to upregulate small sensory neuron excitability” (The Journal of Physiology, 2025).
Peptide text beside a SMILES is read from it. * marks the point of attachment. Cbz = O=C(OCc1ccccc1)*; Boc = CC(C)(C)OC(=O)*

Biological target: T1, Nav1.8 (Homo sapiens, UniProt Q9Y5Y9)
T1 construct: gene SCN10A
Assay: whole-cell patch clamp of Nav1.[…] + FHF4A in ND7/[…] cells ([…] TTX), […] h pre-incubation; transient current
Format: cell-based

T1 sequence (Q9Y5Y9 whole entry, looked up): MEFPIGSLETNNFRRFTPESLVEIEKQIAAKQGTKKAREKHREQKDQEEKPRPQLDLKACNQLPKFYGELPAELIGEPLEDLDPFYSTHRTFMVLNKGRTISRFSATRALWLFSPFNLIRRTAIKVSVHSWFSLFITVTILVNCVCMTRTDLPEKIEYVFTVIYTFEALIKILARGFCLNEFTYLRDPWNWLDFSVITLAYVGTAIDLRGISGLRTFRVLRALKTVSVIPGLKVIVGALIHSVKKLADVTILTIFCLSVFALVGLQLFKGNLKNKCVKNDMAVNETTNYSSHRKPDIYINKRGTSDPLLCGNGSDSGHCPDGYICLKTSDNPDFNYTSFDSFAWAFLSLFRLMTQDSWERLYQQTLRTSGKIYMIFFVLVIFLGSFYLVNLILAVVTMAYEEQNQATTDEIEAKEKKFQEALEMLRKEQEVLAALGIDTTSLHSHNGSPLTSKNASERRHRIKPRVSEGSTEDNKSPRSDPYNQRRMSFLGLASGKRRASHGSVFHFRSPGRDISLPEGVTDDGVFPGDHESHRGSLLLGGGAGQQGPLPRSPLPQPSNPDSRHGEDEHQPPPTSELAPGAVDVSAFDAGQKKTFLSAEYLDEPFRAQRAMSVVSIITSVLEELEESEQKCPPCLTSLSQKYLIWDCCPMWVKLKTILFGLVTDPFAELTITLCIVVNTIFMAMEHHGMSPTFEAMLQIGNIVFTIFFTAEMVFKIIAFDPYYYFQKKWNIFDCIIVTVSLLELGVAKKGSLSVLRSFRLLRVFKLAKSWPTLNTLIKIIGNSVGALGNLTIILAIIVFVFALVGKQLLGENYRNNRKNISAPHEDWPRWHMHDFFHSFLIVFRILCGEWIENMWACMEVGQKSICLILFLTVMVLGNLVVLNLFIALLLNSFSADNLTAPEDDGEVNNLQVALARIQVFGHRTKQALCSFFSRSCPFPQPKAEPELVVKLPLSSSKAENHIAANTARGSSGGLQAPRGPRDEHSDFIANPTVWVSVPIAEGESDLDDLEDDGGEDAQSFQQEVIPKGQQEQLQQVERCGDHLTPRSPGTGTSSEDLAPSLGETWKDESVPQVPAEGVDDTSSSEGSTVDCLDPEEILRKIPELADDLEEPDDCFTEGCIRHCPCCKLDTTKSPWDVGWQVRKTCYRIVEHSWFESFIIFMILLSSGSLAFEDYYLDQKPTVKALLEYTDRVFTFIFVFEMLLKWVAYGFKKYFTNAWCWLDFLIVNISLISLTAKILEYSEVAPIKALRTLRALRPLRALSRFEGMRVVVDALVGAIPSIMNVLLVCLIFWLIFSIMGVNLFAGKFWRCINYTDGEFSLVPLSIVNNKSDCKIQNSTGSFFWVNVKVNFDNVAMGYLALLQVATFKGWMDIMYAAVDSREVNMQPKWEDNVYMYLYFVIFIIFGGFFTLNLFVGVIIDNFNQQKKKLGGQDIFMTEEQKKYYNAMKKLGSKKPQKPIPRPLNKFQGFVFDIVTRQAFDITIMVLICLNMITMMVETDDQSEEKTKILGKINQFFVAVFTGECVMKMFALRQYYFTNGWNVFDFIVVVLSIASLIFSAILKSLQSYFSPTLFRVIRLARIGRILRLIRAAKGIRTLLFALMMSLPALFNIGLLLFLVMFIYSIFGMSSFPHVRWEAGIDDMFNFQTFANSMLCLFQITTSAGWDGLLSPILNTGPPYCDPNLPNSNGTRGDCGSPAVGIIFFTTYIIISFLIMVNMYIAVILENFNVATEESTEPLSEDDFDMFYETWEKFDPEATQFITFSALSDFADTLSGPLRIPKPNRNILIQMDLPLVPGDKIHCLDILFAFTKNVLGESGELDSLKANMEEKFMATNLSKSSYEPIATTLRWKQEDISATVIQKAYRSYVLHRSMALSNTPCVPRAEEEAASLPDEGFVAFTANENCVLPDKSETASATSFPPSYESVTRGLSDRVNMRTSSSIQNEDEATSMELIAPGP

Structure (SMILES): CC(C)C[C@H](NC(=O)[C@H](Cc1ccccc1)NC(=O)OCc1ccccc1)C(=O)N1CCC[C@H]1C(=O)N[C@@H](CCCCNC(=O)OC(C)(C)C)C(N)=O [ZL0177] (Cbz-FLPK(Boc)-NH2)
- IC50: ~19.5 µM
